Results reported in PMC11713868, “Cryo-EM Structure of Recombinantly Expressed hUGDH Unveils a Hidden, Alternative Allosteric Inhibitor” (Biochemistry, 2024).

How the values were obtained:
[1] = target: T1, Human UDP-glucose dehydrogenase (hUGDH) (Homo sapiens, UniProt O60701); test: NADH absorbance ([…] nm) steady-state kinetics, global fit of UDP-Glc saturation curves; assay type: biochemical; design: gene UGDH; recombinant unliganded hUGDH, His tag removed
T1 sequence (O60701 1-494): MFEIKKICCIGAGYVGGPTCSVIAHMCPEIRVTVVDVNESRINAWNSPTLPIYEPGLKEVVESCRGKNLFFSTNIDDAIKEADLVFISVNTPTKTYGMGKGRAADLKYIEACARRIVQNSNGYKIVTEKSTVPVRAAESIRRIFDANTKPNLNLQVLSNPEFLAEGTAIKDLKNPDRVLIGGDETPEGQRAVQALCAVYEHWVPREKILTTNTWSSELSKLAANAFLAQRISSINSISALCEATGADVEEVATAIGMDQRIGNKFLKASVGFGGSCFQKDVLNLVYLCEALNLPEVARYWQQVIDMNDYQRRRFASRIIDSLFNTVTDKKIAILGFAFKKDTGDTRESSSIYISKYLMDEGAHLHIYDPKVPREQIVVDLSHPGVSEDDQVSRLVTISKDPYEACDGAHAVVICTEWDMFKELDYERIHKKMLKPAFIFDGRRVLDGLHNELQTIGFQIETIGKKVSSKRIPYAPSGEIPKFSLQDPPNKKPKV

[2] = target: T1, Human UDP-glucose dehydrogenase (hUGDH); test: cryo-EM structure ([…] Å) of copurified complex, HPLC/NMR/MS ligand identification; Ki from global fit of competitive inhibition kinetics; assay type: biochemical; design: gene UGDH; recombinant hUGDH, N-terminal His tag removed by TEV; hexamer
[3] = target: the molecule itself; test: cryo-EM structure; hUGDH:UX4O (copurified UDP-4-keto-xylose bound), 1 mg/mL, 20 mM Hepes pH 7.5, 100 mM NaCl, 1 mM DTT; C2 reconstruction at 2.38 Å, E-omega state
[4] = substrate: NC(=O)c1ccc[n+]([C@@H]2O[C@H](COP(=O)([O-])OP(=O)(O)OC[C@H]3O[C@@H](n4cnc5c(N)ncnc54)[C@H](O)[C@@H]3O)[C@@H](O)[C@H]2O)c1; test: purified protein; assay type: biochemical, Homo sapiens; conditions: NAD^+ binding (NB) domain; negative cooperativity; varied: cofactor

O=c1ccn([C@@H]2O[C@H](COP(=O)(O)OP(=O)(O)O[C@H]3OC[C@@H](O)[C@H](O)[C@H]3O)[C@@H](O)[C@H]2O)c(=O)[nH]1 [UDP-Xyl, UDP-xylose]
Ki [1]: 440 ± 20 nM

O=C1CO[C@H](OP(=O)(O)OP(=O)(O)OC[C@H]2O[C@@H](n3ccc(=O)[nH]c3=O)[C@H](O)[C@@H]2O)[C@H](O)[C@H]1O [UX4O, UDP-4-keto-xylose]
Ki [2]: 750 ± 60 nM

B1: Human UDP-glucose dehydrogenase (hUGDH) (enzyme)
chain: T1 sequence (O60701 1-494)
notes: UDP-glucose dehydrogenase, human, UniProtKB O60701; also called hUGDH:UX4O (the same protein with copurified UDP-4-keto-xylose); unliganded hUGDH; source: E. coli, purified (TALON column, TEV protease digestion, Superdex 200); not shown: histidine tag, N-terminal, cleaved
stoichiometry N [3]: 6
Km [4]: 83.4 ± 10.4 µM
